Values of other authors in patent publication US20060052448A1, “Use of methyl pyruvate or methyl pyruvic acid for the treatment of diseases of the nervous system and for protecting a human central nervous system against neuronal degeneration caused by defective intracellular energy production” (priority 2004, published 2006).
Like-named read-outs stand apart in the source and are kept apart here.

Experiments:
[1] = test system: porcine carotid artery strips
Na(+)-K(+)-ATPase = conditions: 10 microM
pancreatic beta-cells [2] = test system: pancreatic beta-cells
pancreatic beta-cells [3] = test system: pancreatic beta-cells; remark: listed apart in the source
[4] = test system: isolated beta-cell mitochondria; conditions: in combination with glutamate
whole islets = conditions: 5 mM
K(ATP) channels = target: T1, K(ATP) channels (Homo sapiens, UniProt Q09428+Q14654)
T1 construct: endogenous in cells

[5] = test system: Jurkat T-lymphocyte mitochondria
[6] = test system: isolated rat pancreatic islets
pancreatic beta-cells [7] = test system: pancreatic beta-cells; remark: listed apart in the source
malate-aspartate shuttle [8] = conditions: mGPDH-deficient islets, both shuttles halted
malate-aspartate shuttle [9] = test system: malate-aspartate shuttle
[10] = test system: porcine carotid artery strips; conditions: 10 mM in PSS

T1 sequence (Q14654 whole entry): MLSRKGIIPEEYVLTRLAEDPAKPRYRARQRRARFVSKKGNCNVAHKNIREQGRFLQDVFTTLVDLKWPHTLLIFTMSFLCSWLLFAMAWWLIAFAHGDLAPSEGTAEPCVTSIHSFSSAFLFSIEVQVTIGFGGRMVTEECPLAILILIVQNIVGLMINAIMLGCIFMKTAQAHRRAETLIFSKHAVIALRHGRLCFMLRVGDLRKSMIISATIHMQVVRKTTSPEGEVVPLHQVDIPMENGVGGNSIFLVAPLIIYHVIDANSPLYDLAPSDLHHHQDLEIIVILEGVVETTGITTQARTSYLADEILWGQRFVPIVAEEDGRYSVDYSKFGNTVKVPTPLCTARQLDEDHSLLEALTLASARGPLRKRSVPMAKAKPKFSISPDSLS
T1 sequence (Q09428 whole entry): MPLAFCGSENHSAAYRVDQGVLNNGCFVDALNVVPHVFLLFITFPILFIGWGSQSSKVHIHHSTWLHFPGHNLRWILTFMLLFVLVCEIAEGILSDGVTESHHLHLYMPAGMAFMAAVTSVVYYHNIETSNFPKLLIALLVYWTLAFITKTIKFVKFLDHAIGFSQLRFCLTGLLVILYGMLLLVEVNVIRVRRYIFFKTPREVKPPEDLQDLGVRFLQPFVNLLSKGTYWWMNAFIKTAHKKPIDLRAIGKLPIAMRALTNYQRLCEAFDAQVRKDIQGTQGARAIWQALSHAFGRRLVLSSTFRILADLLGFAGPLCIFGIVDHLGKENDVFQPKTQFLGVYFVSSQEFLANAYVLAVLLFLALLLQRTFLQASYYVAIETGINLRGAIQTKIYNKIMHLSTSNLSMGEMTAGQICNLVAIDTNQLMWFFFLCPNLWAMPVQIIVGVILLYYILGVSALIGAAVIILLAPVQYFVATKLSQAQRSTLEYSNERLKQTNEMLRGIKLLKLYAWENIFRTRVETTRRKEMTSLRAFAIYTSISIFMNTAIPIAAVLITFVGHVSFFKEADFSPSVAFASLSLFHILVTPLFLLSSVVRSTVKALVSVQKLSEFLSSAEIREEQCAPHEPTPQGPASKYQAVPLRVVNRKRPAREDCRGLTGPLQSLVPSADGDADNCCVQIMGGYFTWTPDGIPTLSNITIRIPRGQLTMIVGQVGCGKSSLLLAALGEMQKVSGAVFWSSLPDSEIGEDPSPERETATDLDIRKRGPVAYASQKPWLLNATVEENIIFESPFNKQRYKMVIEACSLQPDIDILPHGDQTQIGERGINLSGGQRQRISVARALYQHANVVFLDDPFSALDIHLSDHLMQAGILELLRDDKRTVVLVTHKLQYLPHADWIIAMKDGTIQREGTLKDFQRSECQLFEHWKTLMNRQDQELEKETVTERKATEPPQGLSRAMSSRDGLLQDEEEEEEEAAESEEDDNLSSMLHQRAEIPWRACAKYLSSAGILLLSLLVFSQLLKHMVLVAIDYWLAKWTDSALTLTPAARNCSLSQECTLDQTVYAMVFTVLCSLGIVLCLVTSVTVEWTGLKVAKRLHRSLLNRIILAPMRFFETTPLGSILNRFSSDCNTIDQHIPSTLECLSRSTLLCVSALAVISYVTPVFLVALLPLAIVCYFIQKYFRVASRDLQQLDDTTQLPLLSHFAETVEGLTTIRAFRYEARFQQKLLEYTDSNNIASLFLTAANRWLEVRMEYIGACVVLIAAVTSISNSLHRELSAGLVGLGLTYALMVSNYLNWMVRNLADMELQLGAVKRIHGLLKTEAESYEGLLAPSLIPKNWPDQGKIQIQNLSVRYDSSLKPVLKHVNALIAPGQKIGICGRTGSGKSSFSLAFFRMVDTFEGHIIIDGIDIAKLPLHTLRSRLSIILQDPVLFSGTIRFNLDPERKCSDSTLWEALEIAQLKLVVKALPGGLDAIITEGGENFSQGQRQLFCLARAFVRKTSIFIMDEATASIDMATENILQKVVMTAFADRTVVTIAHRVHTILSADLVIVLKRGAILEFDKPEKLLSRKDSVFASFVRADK

For `[Cl-].[K+]` [KCl], the “change in resting tone” value ([1]; 10 mM KCl, glucose-PSS) is listed as -0.8 ± 0.8 g, the “change in resting tone (increased contraction)” value ([1]; 10 mM KCl, lactate-PSS) is listed as 1.5 ± 0.7 g and the “change in resting tone” value ([1]; 10 mM KCl, pyruvate-PSS) is listed as -2.1 ± 0.8 g. The EC50 ([1]; in glucose, read-out: EC50 of KCl concentration-response curve) was 32.1 ± 0.9 mM.
For `C[C@@H]1O[C@@H](O[C@H]2C[C@@H](O)[C@]3(CO)[C@H]4[C@H](O)C[C@]5(C)[C@@H](C6=CC(=O)OC6)CC[C@]5(O)[C@@H]4CC[C@]3(O)C2)[C@H](O)[C@H](O)[C@H]1O` [ouabain], the “glycolysis and lactate production” value (Na(+)-K(+)-ATPase) is given as “decreased glycolysis and lactate production”.
For `COC(=O)C(C)=O` [methyl pyruvate], the “increase in insulin secretion relative to that induced by glucose” value (pancreatic beta-cells [2]) is given as 6 fold, the “concentration of maximal effect on insulin secretion” value (pancreatic beta-cells [2]; absence of glucose) is given as 5 mM and the “depolarization of the beta-cell membrane potential” value (pancreatic beta-cells [3]; 5-20 mM) is given as “depolarized the beta-cell in a concentration-dependent manner”. For the same compound, the electrical activity (pancreatic beta-cells [3]; in the presence of 0.5 mM glucose) was “elicited electrical activity”, the “ATP production (accumulation of ATP in the medium)” value [4] was “higher than that induced by pyruvate/glutamate” and the “effect on ATP/ADP ratio in whole islets” value (whole islets) was “no effect”. For the same compound, the “K(ATP) current in standard whole-cell configuration” value (K(ATP) channels) was “inhibited”, the “block of KATP” value (K(ATP) channels) was “produced a block of KATP” and the “single-channel currents in inside-out patches” value (K(ATP) channels) was “blocked”. For the same compound, the “cation current across the inner mitochondrial membrane” value [5] was “directly inhibited”, the “high concentration of the methyl ester giving negative insulinotropic action” value ([6]; and/or high D-glucose (16.7 mM)) was 20.0 mM and the “concentration of the ester at which positive insulinotropic action prevailed” value ([6]; low D-glucose, 2.8 to 8.3 mM) was ≤ 10.0 mM. The “ATP production or ATP/ADP ratio” value (pancreatic beta-cells [7]) was “did not influence”, the “NAD(P)H autofluorescence” value (pancreatic beta-cells [7]) was “slightly decreased” and the “NADH and NADPH response (NAD(P)H imaging and LipDH autofluorescence)” value (pancreatic beta-cells [7]) was “stimulated a robust NADH and NADPH response”. The “cytosolic free Ca(2+) concentration” value (pancreatic beta-cells [7]; after an initial decrease) was “increased”.
In the case of `NOCC(=O)O` [amino-oxyacetic acid], the glucose-induced insulin secretion (malate-aspartate shuttle [8]) is listed as “almost completely abrogated” and the “negative shift in cytosolic NAD+/NADH redox potential” value (malate-aspartate shuttle [9]) is listed as 26 mV.
In the case of `CC(O)C(=O)O` (stereo not drawn) [lactate], the “increase in O2 consumption” value [10] is listed as “without effect”.
